Measured values published in patent publication US10724028B2, “Ligand-binding fiber and cell culture substrate using said fiber” (NISSAN CHEMICAL INDUSTRIES, LTD., priority 2014, dated 2020).

System: TPO-dependent human megakaryoblastic leukemia cell line (UT-7/TPO)
Assay: Cell culture evaluation: UT-7/TPO cell number count using WST-8 after 6 days of culture on the substrate
Type: cell-based
Description: The ligand-bonded fiber 1 of Example 1 and the fiber of Comparative Example 1 were subjected to cell culture evaluation. As a control for the evaluation, a system in which PSt substrate was configured (positive control: thrombopoietin (TPO) (10 ng/mL) was added to medium, negative control: medium alone) was used. In the following, the CO2 concentration (%) of the CO2 incubator is shown by % by volume of CO2 in the atmosphere.
As the cell, TPO-dependent human megakaryoblastic leukemia cell line (UT-7/TPO; Komatsu et. al., Blood, 1996, 87, pp. 4552-4560) was used. For cell culture, IMDM (Iscove's Modified Dulbecco's Medium) medium (manufactured by Sigma-Aldrich) containing 10% (v/v) FBS and 10 ng/mL TPO (Thrombopoietin, manufactured by PeproTech) was used. The cells were cultured for not less than 2 days in a CO2 incubator at 37° C. while keeping 5% carbon dioxide concentration. The obtained culture medium was centrifuged (manufactured by TOMY SEIKO Co., Ltd., LC-200, 1500 rpm/3 min, room temperature), the supernatant was removed, the above-mentioned IMDM medium free of TPO was added to prepare a cell suspension. The “FBS” here means fetal bovine serum (manufactured by Biological Industries).
The ligand-bonded fiber of Example 1, the fiber of Comparative Example 1, and PSt substrate (for positive control and negative control) were configured in 6 well flat-bottom microplates (manufactured by AS ONE Corporation). […]
After 6 days of cell culture, the cell culture medium was recovered from respective wells in which the ligand-bonded fibers 1-3 of Examples 1-3, the fiber of Comparative Example 1, the substrate of Comparative Example 2, and PSt substrates for positive control and negative control were configured. […] After standing in a CO2 incubator at 37° C. for 120 min, the absorbance at 450 nm was measured by an absorption spectrometer (manufactured by Molecular Devices, SpectraMax). […]
After 6 days of culture, the cell number was counted in the same manner as above by using WST-8. […]

thrombopoietin [positive control]
100%: cell number (%) cell culture, first time (Table 3, UT-7/TPO, 6 days culture, positive control (TPO 10 ng/mL) as 100%) | cell number (%) cell culture, third time (Table 3, same substrate reused a third time, fresh UT-7/TPO cells, 6 days, positive control as 100%) | cell number (%) cell culture, second time (Table 3, same substrate reused after PBS wash, fresh UT-7/TPO cells, 6 days, positive control as 100%)
